Test results reported in ChEMBL document CHEMBL1201862, “PubChem BioAssay data set” (2004).
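Interpolation was linear, between the two tested concentrations surrounding the appropriate level; five concentrations were tested over 48 hours in 96-well plates. The concentration for 50% growth inhibition is given as GI50.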 The source made the active and inactive calls. No stated cut-off is given here; in the data, active = GI50 up to about 1.1 µM and inactive = higher.

Columns and labels:
Assay in all cases: DTP human tumour cell line panel, 48 h
HOP-92 = system: HOP-92
SK-OV-3 = system: SK-OV-3
K562 = system: K562
COLO 205 = system: COLO 205
HCT-15 = system: HCT-15
CAKI-1 = system: CAKI-1
NCI-H460 = system: NCI-H460
OVCAR-3 = system: OVCAR-3
HL-60 = system: HL-60
NCI-H522 = system: NCI-H522
HCT-116 = system: HCT-116
SK-MEL-2 = system: SK-MEL-2
786-0 = system: 786-0
EKVX = system: EKVX
RXF 393 = system: RXF 393
RPMI-8226 = system: RPMI-8226
NCI-H23 = system: NCI-H23
SF-539 = system: SF-539

Row | Compound | GI50 (HOP-92) | GI50 (SK-OV-3) | GI50 (K562) | GI50 (COLO 205) | GI50 (HCT-15) [µM] | GI50 (CAKI-1) | GI50 (NCI-H460) | GI50 (OVCAR-3) | GI50 (HL-60) | GI50 (NCI-H522) | GI50 (HCT-116) | GI50 (SK-MEL-2) | GI50 (786-0) | GI50 (EKVX) | GI50 (RXF 393) | GI50 (RPMI-8226) | GI50 (NCI-H23) | GI50 (SF-539)
1 | CC12O[C@H](c3ccccc3)[C@H](c3ccccc3)N1C(=O)C1(C(=O)OCc3ccccc3)CC12 (stereo partly drawn) | 23.5 µM (inactive) | > 100 µM (inactive) | 37.3 µM (inactive) | 89.9 µM (inactive) | 86.5 | > 100 µM (inactive) | > 100 µM (inactive) | > 100 µM (inactive) | 32.4 µM (inactive) | 39.1 µM (inactive) | 98.2 µM (inactive) | 33.3 µM (inactive) | > 100 µM (inactive) | – | – | – | – | –
2 | CC(C)COC1Sc2ccccc2S1 | 14.5 µM (inactive) | 28.1 µM (inactive) | – | 32.4 µM (inactive) | 22.4 | 16.3 µM (inactive) | 7.85 µM (inactive) | 19.6 µM (inactive) | – | – | – | – | 22.3 µM (inactive) | 20 µM (inactive) | 18.2 µM (inactive) | 5.45 µM (inactive) | 22.3 µM (inactive) | –
3 | CC1(C)OC2CC3COC(=O)C3CC2O1 (stereo not drawn) | > 100 µM (inactive) | > 100 µM (inactive) | > 100 µM (inactive) | > 100 µM (inactive) | > 100 | > 100 µM (inactive) | > 100 µM (inactive) | > 100 µM (inactive) | > 100 µM (inactive) | > 100 µM (inactive) | > 100 µM (inactive) | > 100 µM (inactive) | > 100 µM (inactive) | > 100 µM (inactive) | – | > 100 µM (inactive) | > 100 µM (inactive) | > 100 µM (inactive)
4 | Cc1cc(O)cc2oc(=O)c3c(O)cc(O)cc3c12 [ALTERNARIOL] | 30.5 µM (inactive) | 18.5 µM (inactive) | 36.6 µM (inactive) | 27.4 µM (inactive) | 18.2 | 21 µM (inactive) | 13.1 µM (inactive) | 23 µM (inactive) | 16.4 µM (inactive) | 13.4 µM (inactive) | 17.6 µM (inactive) | 37.6 µM (inactive) | 28.6 µM (inactive) | 6.71 µM (inactive) | 23.3 µM (inactive) | – | 20.7 µM (inactive) | 17 µM (inactive)
5 | O/N=C1/CCC/C1=C\c1ccccc1 | > 100 µM (inactive) | > 100 µM (inactive) | 74.1 µM (inactive) | > 100 µM (inactive) | > 100 | > 100 µM (inactive) | > 100 µM (inactive) | > 100 µM (inactive) | 28.6 µM (inactive) | 31 µM (inactive) | > 100 µM (inactive) | > 100 µM (inactive) | > 100 µM (inactive) | 21.9 µM (inactive) | 96.6 µM (inactive) | > 100 µM (inactive) | > 100 µM (inactive) | > 100 µM (inactive)
6 | COc1cc2nc(NCCCCCNC(=O)c3ccco3)nc(N)c2cc1OC | 12.2 µM (inactive) | 32.4 µM (inactive) | 29.1 µM (inactive) | 18.2 µM (inactive) | > 100 | 42.6 µM (inactive) | 32 µM (inactive) | 24.7 µM (inactive) | 21.4 µM (inactive) | 25.4 µM (inactive) | – | 19.7 µM (inactive) | 21.5 µM (inactive) | > 100 µM (inactive) | 27.6 µM (inactive) | 38 µM (inactive) | 87.7 µM (inactive) | 19.6 µM (inactive)
7 | N#C/C(=C\c1ccc(O)c(O)c1)c1c(C#N)c(N)nn1-c1ccccc1 | 8.71 µM (inactive) | 12.9 µM (inactive) | 3.94 µM (inactive) | 24.1 µM (inactive) | 11.7 | 1.59 µM (inactive) | 10.8 µM (inactive) | 2.04 µM (inactive) | 7.85 µM (inactive) | 3.32 µM (inactive) | 5.48 µM (inactive) | 13 µM (inactive) | 7.67 µM (inactive) | 7.45 µM (inactive) | – | – | 7.43 µM (inactive) | 6.64 µM (inactive)
8 | C=C(Br)C(C)(Cl)CCC(Br)C(C)(C)Br (stereo not drawn) | 32.7 µM (inactive) | > 100 µM (inactive) | 27.4 µM (inactive) | 57 µM (inactive) | 67 | > 100 µM (inactive) | 47.5 µM (inactive) | – | 19.9 µM (inactive) | 43.8 µM (inactive) | 31.9 µM (inactive) | 29.2 µM (inactive) | > 100 µM (inactive) | – | 22.4 µM (inactive) | 25.9 µM (inactive) | 72.8 µM (inactive) | > 100 µM (inactive)
9 | COc1cc(C(C)O)c[n+](CCC2CNc3ccccc32)c1 (stereo not drawn) | – | – | > 100 µM (inactive) | 43.3 µM (inactive) | > 100 | > 100 µM (inactive) | > 100 µM (inactive) | 26.1 µM (inactive) | > 100 µM (inactive) | > 100 µM (inactive) | > 100 µM (inactive) | > 100 µM (inactive) | > 100 µM (inactive) | 33 µM (inactive) | – | > 100 µM (inactive) | > 100 µM (inactive) | > 100 µM (inactive)
10 | CCOC(=O)[C@H]1Nc2ccc(Cl)cc2[C@H]2c3ccccc3O[C@H]21 | – | – | 56.5 µM (inactive) | > 100 µM (inactive) | 16.4 | > 100 µM (inactive) | > 100 µM (inactive) | 80.4 µM (inactive) | – | > 100 µM (inactive) | > 100 µM (inactive) | > 100 µM (inactive) | > 100 µM (inactive) | > 100 µM (inactive) | > 100 µM (inactive) | 45.5 µM (inactive) | > 10 µM (inactive) | > 100 µM (inactive)
11 | Nc1nc2c3c(ncn3CC(O)CO2)n1 (stereo not drawn) | > 100 µM (inactive) | > 100 µM (inactive) | > 100 µM (inactive) | > 100 µM (inactive) | > 100 | > 100 µM (inactive) | > 100 µM (inactive) | > 100 µM (inactive) | > 100 µM (inactive) | > 100 µM (inactive) | > 100 µM (inactive) | > 100 µM (inactive) | > 100 µM (inactive) | – | > 100 µM (inactive) | > 100 µM (inactive) | > 100 µM (inactive) | > 100 µM (inactive)
12 | CCOC(=N)/C(=C1\OC(=N)C(c2ccc(Cl)cc2)=C1O)c1ccc(Cl)cc1 | 18.5 µM (inactive) | 36.5 µM (inactive) | 19.8 µM (inactive) | 16.6 µM (inactive) | – | 23.2 µM (inactive) | 21.6 µM (inactive) | 18 µM (inactive) | 17.3 µM (inactive) | 15 µM (inactive) | 16.9 µM (inactive) | – | 17.8 µM (inactive) | 18.1 µM (inactive) | 13.8 µM (inactive) | 14.8 µM (inactive) | 15.3 µM (inactive) | 16.5 µM (inactive)
13 | Nc1ncnc2c1ncn2[C@]1(CO)C=C(CO)C(O)C1O (stereo partly drawn) | > 100 µM (inactive) | > 100 µM (inactive) | – | > 100 µM (inactive) | > 100 | > 100 µM (inactive) | > 100 µM (inactive) | – | > 100 µM (inactive) | > 100 µM (inactive) | 73.1 µM (inactive) | > 100 µM (inactive) | > 100 µM (inactive) | – | > 100 µM (inactive) | > 100 µM (inactive) | > 100 µM (inactive) | –
14 | Cc1ccc(NC(=O)CCc2nc(N)nc(N)c2-c2ccccc2)cc1C | > 100 µM (inactive) | > 100 µM (inactive) | > 100 µM (inactive) | > 100 µM (inactive) | > 100 | > 100 µM (inactive) | > 100 µM (inactive) | > 100 µM (inactive) | > 100 µM (inactive) | > 100 µM (inactive) | > 100 µM (inactive) | > 100 µM (inactive) | > 100 µM (inactive) | > 100 µM (inactive) | – | > 100 µM (inactive) | > 100 µM (inactive) | > 100 µM (inactive)
15 | O=C(Nc1c(O)[nH]c(=S)[nH]c1=O)c1ccco1 | 38.9 µM (inactive) | > 100 µM (inactive) | > 100 µM (inactive) | > 100 µM (inactive) | > 100 | > 100 µM (inactive) | > 100 µM (inactive) | > 100 µM (inactive) | > 100 µM (inactive) | > 100 µM (inactive) | > 100 µM (inactive) | > 100 µM (inactive) | > 100 µM (inactive) | – | – | > 100 µM (inactive) | > 100 µM (inactive) | > 100 µM (inactive)
16 | O=C(N/C(=C\c1ccc(/C=C(\NC(=O)c2ccccc2)c2nc3c(O)nc(S)nc3[nH]2)cc1)c1nc2c(O)nc(S)nc2[nH]1)c1ccccc1 | > 100 µM (inactive) | > 100 µM (inactive) | 30.3 µM (inactive) | > 100 µM (inactive) | > 100 | > 100 µM (inactive) | > 100 µM (inactive) | > 100 µM (inactive) | – | 14.6 µM (inactive) | 44.8 µM (inactive) | 8.71 µM (inactive) | > 100 µM (inactive) | > 100 µM (inactive) | 38.6 µM (inactive) | 29.4 µM (inactive) | 55.7 µM (inactive) | 61.9 µM (inactive)
17 | O=C(C[n+]1ccccc1)N/N=C(/CCC(=O)N(Cc1ccccc1)Cc1ccccc1)CC(=O)c1ccccc1 | > 100 µM (inactive) | – | > 100 µM (inactive) | > 100 µM (inactive) | > 100 | > 100 µM (inactive) | > 100 µM (inactive) | > 100 µM (inactive) | > 100 µM (inactive) | > 100 µM (inactive) | > 100 µM (inactive) | > 100 µM (inactive) | > 100 µM (inactive) | > 100 µM (inactive) | > 100 µM (inactive) | > 100 µM (inactive) | > 100 µM (inactive) | > 100 µM (inactive)
18 | Cc1ccc(S(=O)(=O)OCC23CCC(C2)C2CC23)cc1 (stereo not drawn) | 26 µM (inactive) | > 100 µM (inactive) | > 100 µM (inactive) | > 100 µM (inactive) | > 100 | > 100 µM (inactive) | > 100 µM (inactive) | > 100 µM (inactive) | 31.6 µM (inactive) | – | > 100 µM (inactive) | – | > 100 µM (inactive) | – | – | 90.4 µM (inactive) | > 100 µM (inactive) | –
